pIC50: −log10 of the molar value.
Assays:
[1] = molecular target: T1, Avi-KRAS G12V (1-169) GppNHp/RAF1 RBD-3xFLAG (52-151) (Homo sapiens, UniProt P01116, G12V); assay: Raf1-KRAS G12V-GppNHP disruption HTRF assay (Biological Example 1); format: binding; conditions: KRAS G12V, GppNHp-loaded; class symbols
T1 construct: Avi-KRAS G12V (1-169)
In short: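 Protein mix, 1 h RT, 700 rpm; reagent mix, 1 h RT, 700 rpm; HTRF read. Buffer Tris pH 7.5/NaCl/MgCl2/BSA/Tween, 10% DMSO. Output % activity, DMSO = 100%.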

[2] = molecular target: T2, Avi-KRAS G12D (2-169) GTP/RAF1 RBD-3xFLAG (51-131) (Homo sapiens, UniProt P01116, G12D); assay: Raf1-KRAS G12D-GTP disruption HTRF assay (Biological Example 3); format: binding; conditions: KRAS G12D, GTP-loaded
T2 construct: Avi-KRAS G12D (2-169)
T2 sequence (P01116 2-169 isoform P01116-2 G12D): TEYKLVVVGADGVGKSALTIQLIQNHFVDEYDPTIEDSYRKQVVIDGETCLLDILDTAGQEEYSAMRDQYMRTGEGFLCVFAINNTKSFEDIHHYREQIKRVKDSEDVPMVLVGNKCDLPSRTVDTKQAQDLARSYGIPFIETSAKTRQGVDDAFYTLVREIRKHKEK
In short: (§1)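 HTRF PPI read-out (ex 320 nm, em 615 nm) after 1 h RT incubation with shaking; data as % activity vs DMSO (100%), IC50 from curve fit. Complex 50 nM, RBD reagent 75 nM; compound 30-0.005 μM, 3-fold.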

[3] = molecular target: T3, Avi-KRAS WT (2-169) GTP/RAF1 RBD-3xFLAG (51-131) (Homo sapiens, UniProt P01116); assay: Raf1-KRAS WT-GTP disruption HTRF assay (Biological Example 3); format: binding; conditions: KRAS WT, GTP-loaded
T3 construct: Avi-KRAS WT (2-169)
T3 sequence (P01116 2-169 isoform P01116-2): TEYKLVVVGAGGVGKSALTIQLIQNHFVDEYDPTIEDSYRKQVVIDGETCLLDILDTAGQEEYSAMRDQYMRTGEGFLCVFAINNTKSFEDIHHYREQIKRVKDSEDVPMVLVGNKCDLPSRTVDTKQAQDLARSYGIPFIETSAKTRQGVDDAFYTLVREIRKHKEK
In short: as §1

SW620 cells (KRAS G12V) = assay: Cell-based pERK HTRF assay in SW620 cell (Biological Example 4)
In short: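 SW620 seeded in RPMI/10% FBS, next day dosed 4 h (top 1 μM, half-log, 9 pts, 0.25% DMSO). Lysed, pERK by d2/Eu cryptate HTRF, 4–24 h RT, 615 nm read.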

[4] = Homo sapiens, SW-620, SW620 (KRAS G12V) cells
[5] = Homo sapiens, SW-620, SW620 (KRAS G12V) cells, pERK HTRF, class symbols

T1 sequence (P01116 1-169 isoform P01116-2 G12V): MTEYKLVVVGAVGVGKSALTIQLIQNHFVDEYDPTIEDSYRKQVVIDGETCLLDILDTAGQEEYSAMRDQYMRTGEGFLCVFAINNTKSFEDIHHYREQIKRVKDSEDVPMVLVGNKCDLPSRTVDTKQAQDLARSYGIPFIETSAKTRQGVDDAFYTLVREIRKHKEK

SMILES	pIC50 [1]	pIC50 [2]	pIC50 [3]	pIC50 (SW620 cells (KRAS G12V); [4])	pIC50 (SW620 cells (KRAS G12V); [5])	pIC50 (SW620 cells (KRAS G12V); SW620 (KRAS G12V) cells)
CCN(c1nc(OC[C@@]23CCCN2C[C@H](F)C3)nc2c(F)c(-c3ccc(F)c4sc(N)c(C#N)c34)c(C(F)(F)F)cc12)[C@H]1CCN(C(=O)N2CC(F)C2)C1 (atropisomer, axis not shown) [Compound 606]	> 7.00	≥ 7.00	6.00 to 7.00	> 7.00	> 7.00	
CCN(c1nc(OC[C@@]23CCCN2C[C@H](F)C3)nc2c(F)c(-c3ccc(F)c4sc(N)c(C#N)c34)c(C(F)(F)F)cc12)[C@H]1CCN(C(=O)N2CC(OC)C2)C1 (atropisomer, axis not shown) [Compound 607]	> 7.00	≥ 7.00	≥ 7.00	> 7.00	> 7.00	
CC(=O)N1CC[C@H](N(c2nc(OC[C@@]34CCCN3C[C@H](F)C4)nc3c(F)c(-c4ccc(F)c5sc(N)c(C#N)c45)c(C(F)(F)F)cc23)C2CC2)C1 (atropisomer, axis not shown) [Compound 608]	6.00 to 7.00	6.00 to 7.00	5.00 to 6.00	> 7.00	> 7.00	
C[C@H]1Cn2nc(C(=O)N(C)C)cc2CN1c1nc(OC[C@@]23CCCN2C[C@H](F)C3)nc2c(F)c(-c3ccc(F)c4sc(N)c(C#N)c34)c(C(F)(F)F)cc12 (atropisomer, axis not shown) [Compound 610]	6.00 to 7.00	6.00 to 7.00	5.00 to 6.00	> 7.00	> 7.00	
CCN(c1nc(OC[C@@]23CCCN2C[C@H](F)C3)nc2c(F)c(-c3ccc(F)c4sc(N)c(C#N)c34)c(C(F)(F)F)cc12)[C@H]1CCN(C(=O)CC(F)F)C1 (atropisomer, axis not shown) [Compound 611]	> 7.00	≥ 7.00	6.00 to 7.00	> 7.00	> 7.00	
CCN(c1nc(OC[C@@]23CCCN2C[C@H](F)C3)nc2c(F)c(-c3ccc(F)c4sc(N)c(C#N)c34)c(C(F)(F)F)cc12)[C@H]1CC(=O)N(CC(F)F)C1 (atropisomer, axis not shown) [Compound 613]	6.00 to 7.00	≥ 7.00	6.00 to 7.00	> 7.00	> 7.00	
CCN(c1nc(OC[C@@]23CCCN2C[C@H](F)C3)nc2c(F)c(-c3ccc(F)c4sc(N)c(C#N)c34)c(C(F)(F)F)cc12)[C@H]1CC(=O)N(C)C1 (atropisomer, axis not shown) [Compound 614]	> 7.00	6.00 to 7.00	6.00 to 7.00	> 7.00	> 7.00	
CCN(c1nc(OC[C@@]23CCCN2C[C@H](F)C3)nc2c(F)c(-c3ccc(F)c4sc(N)c(C#N)c34)c(C(F)(F)F)cc12)[C@H]1CC(=O)N(C2CC2)C1 (atropisomer, axis not shown) [Compound 615]	> 7.00	≥ 7.00	6.00 to 7.00	> 7.00	> 7.00	
CCN(c1nc(OC[C@@]23CCCN2C[C@H](F)C3)nc2c(F)c(-c3ccc(F)c4sc(N)c(C#N)c34)c(C(F)(F)F)cc12)[C@H]1CCN(C(=O)N2CCN(C(C)=O)CC2)C1 (atropisomer, axis not shown) [Compound 619]	> 7.00	6.00 to 7.00	6.00 to 7.00	> 7.00	> 7.00	
CC(=O)N1CC[C@H](N(CCF)c2nc(OC[C@@]34CCCN3C[C@H](F)C4)nc3c(F)c(-c4ccc(F)c5sc(N)c(C#N)c45)c(C(F)(F)F)cc23)C1 (atropisomer, axis not shown) [Compound 622]	> 7.00	≥ 7.00	6.00 to 7.00	> 7.00	> 7.00	
CCN1C[C@@H](N(C)c2nc(OC[C@@]34CCCN3C[C@H](F)C4)nc3c(F)c(-c4ccc(F)c5sc(N)c(C#N)c45)c(C(F)(F)F)cc23)CC1=O (atropisomer, axis not shown) [Compound 636]	> 7.00	6.00 to 7.00	6.00 to 7.00	> 7.00	> 7.00	
CCN(c1nc(OC[C@@]23CCCN2C[C@H](F)C3)nc2c(F)c(-c3ccc(F)c4sc(N)c(C#N)c34)c(C(F)(F)F)cc12)[C@H]1CCN(C(=O)C2CN(C(C)=O)C2)C1 (atropisomer, axis not shown) [Compound 638]	> 7.00	≥ 7.00	6.00 to 7.00	> 7.00	> 7.00	
C=C(C)C(=O)N1CC[C@H](N(CC)c2nc(OC[C@@]34CCCN3C[C@H](F)C4)nc3c(F)c(-c4ccc(F)c5sc(N)c(C#N)c45)c(C(F)(F)F)cc23)C1 (atropisomer, axis not shown) [Compound 673]	> 7.00	≥ 7.00	6.00 to 7.00	> 7.00	> 7.00	
C/C=C/C(=O)N1CC[C@H](N(CC)c2nc(OC[C@@]34CCCN3C[C@H](F)C4)nc3c(F)c(-c4ccc(F)c5sc(N)c(C#N)c45)c(C(F)(F)F)cc23)C1 (atropisomer, axis not shown) [Compound 674]	> 7.00	≥ 7.00	≥ 7.00	6.00 to 7.00	> 7.00	
CCN(c1nc(OC[C@@]23CCCN2C[C@H](F)C3)nc2c(F)c(-c3ccc(F)c4sc(N)c(C#N)c34)c(C(F)(F)F)cc12)[C@H]1CCN(C(=O)O[C@@H]2CCOC2)C1 (atropisomer, axis not shown) [Compound 683]	> 7.00	≥ 7.00	6.00 to 7.00	> 7.00	> 7.00	
CCN(c1nc(OC[C@@]23CCCN2C[C@H](F)C3)nc2c(F)c(-c3ccc(F)c4sc(N)c(C#N)c34)c(C(F)(F)F)cc12)[C@H]1CCN(C(=O)[C@@H]2C[C@@H]2C)C1 (atropisomer, axis not shown) [Compound 689]	> 7.00	6.00 to 7.00	6.00 to 7.00	> 7.00	> 7.00	
CCN(c1nc(OC[C@@]23CCCN2C[C@H](F)C3)nc2c(F)c(-c3ccc(F)c4sc(N)c(C#N)c34)c(C(F)(F)F)cc12)[C@H]1C[C@H](COC)N(C(=O)C2CC2)C1 (atropisomer, axis not shown) [Compound 696]	> 7.00	≥ 7.00	6.00 to 7.00	> 7.00	> 7.00	
CCN(c1nc(OC[C@@]23CCCN2C[C@H](F)C3)nc2c(F)c(-c3ccc(F)c4sc(N)c(C#N)c34)c(C(F)(F)F)cc12)[C@@H]1CC(=O)N(C2CC2)C1 (atropisomer, axis not shown) [Compound 703]	5.00 to 6.00	5.00 to 6.00	5.00 to 6.00		> 7.00	> 7.00
CCN(c1nc(OC[C@@]23CCCN2C[C@H](F)C3)nc2c(F)c(-c3ccc(F)c4sc(N)c(C#N)c34)c(C(F)(F)F)cc12)[C@H]1C[C@H](C)N(C(=O)OC)C1 (atropisomer, axis not shown) [Compound 704]	> 7.00	6.00 to 7.00	6.00 to 7.00	> 7.00	> 7.00	
CCN(c1nc(OC[C@@]23CCCN2C[C@H](F)C3)nc2c(F)c(-c3ccc(F)c4sc(N)c(C#N)c34)c(C(F)(F)F)cc12)[C@H]1CCN(C(=O)c2ccns2)C1 (atropisomer, axis not shown) [Compound 726]	> 7.00	6.00 to 7.00	6.00 to 7.00	> 7.00	> 7.00	
